Measurements as given in the NIST ThermoML archive (doi:10.1021/je101131x).
± gives the expanded uncertainty stated by the source.

Settings: Liquid

Structure (SMILES) | vapor or sublimation pressure (323.15 K) | vapor or sublimation pressure (333.15 K) | vapor or sublimation pressure (343.15 K) | vapor or sublimation pressure (353.15 K)
CCCOC(C)=O [propyl ethanoate] | 16.09 ± 0.61 kPa | 24.01 ± 0.8 kPa | 34.99 ± 1.1 kPa | 49.92 ± 1.4 kPa
CC(=O)O [acetic acid] | 7.567 ± 0.41 kPa | 12.04 ± 0.51 kPa | 18.66 ± 0.67 kPa | 28.2 ± 0.89 kPa
